In patent publication US7378446B2, “Compound having anti-HCV activity and process for producing the same” (Chugai Seiyaku Kabushiki Kaisha, priority 2003, dated 2008):

Assays:
[1] = test system: Firefly luciferase HCV replicon cells (3-1); test: Replicon assay (firefly luciferase HCV replicon); type: cell-based; details: Hepatitis C virus, 72 h; Huh7-derived luciferase HCV replicon cells, 3 days culture with compound, Steady-Glo luminescence
Experimental: (§1) A construct was prepared in which a luciferase gene derived from firefly was introduced as a reporter gene in HCV-RNA to assay the number of copies of HCV-RNA. The luciferase gene was introduced in the form of fusing with neomycin-resistance gene directly below the IRES (Internal Ribosome Entry Site) of the HCV gene in accordance with the method of Krieger, et al. (J. Virol. 75:4614). After synthesizing this RNA in vitro, it was introduced into Huh7 cell by electroporation and isolated as G418-resistant clone. Firefly luciferase HCV replicon cells (3-1) were suspended in Dulbecco's MEM (Gibco cat. no. 10569-010) containing 5% fetal bovine serum (Hyclone cat. no. SH30071.03), inoculated into the wells of a 96-well plate at 5000 cells/well and then cultured overnight at 37° C. and 5% CO2. Approximately 20 hours later, the diluted test compound was added at 10 μl per well followed by culturing for another 3 days. Two series of assay plates were prepared, and the assay was carried out using a white plate for one series and a clear plate for the other series. Following completion of culturing, the white plate was used for the Steady-Glo Luciferase Assay System (Promega cat. no. E2520). Namely, after adding 100 μl of reagent per well, mixing by a pipette 3 to 4 times and then allowing to stand for 5 minutes, luminescence was measured with the 1450 MicroBeta TRILUX (Wallac). Values obtained in the absence of cell addition were used as background values and subtracted from all values to calculate the IC50 (50% inhibitory concentration) of the drug based on a value of 0% inhibition for the value in the absence of addition of test compound.

[2] = in vitro; type: cell-based; details: human; replicon cells, 3 days culture with compound, Cell Counting Kit 8, absorbance 450 nm; read-out: Cytotoxicity CC50
Experimental: as §1
The Cell Counting Kit 8 (Dojindo cat. no. CK04) was used to determine the cytotoxicity. Namely, 10 μl of Cell Counting Kit 8 were added to a clear plate and incubated for 30 to 60 minutes at 37° C. Absorbance at a wavelength of 450 nm and a control wavelength of 630 nm was measured with a 96-well plate reader. Values in the absence of cell addition were used as background values and subtracted from all values to calculate the CC50 (50% cell inhibitory concentration) of the drug based on a value of 0% inhibition for the value in the absence of addition of drug.

| Structure (SMILES) | IC50 [1] [µM] | CC50 [2] [µM] |
| --- | --- | --- |
| CCCCCCCC(=O)CCCCCC/C=C/[C@H](C(=O)N[C@@H](Cc1ccc(-n2cc(C(=O)OCC)nn2)cc1)C(=O)O)[C@@](O)(CC(=O)O)C(=O)O [Compound 96] | 0.009 | > 1 |
| CCCCCCCC(=O)CCCCCC/C=C/[C@H](C(=O)N[C@@H](Cc1cccnc1)C(=O)O)[C@@](O)(CC(=O)O)C(=O)O [Compound 97] | 0.302 | > 1 |
| CC(C)CCOc1ccc(C[C@H](NC(=O)[C@@H](/C=C/CCCCCCC(=O)CCCCCCF)[C@@](O)(CC(=O)O)C(=O)O)C(=O)O)cc1 [Compound 98] | 0.021 | > 1 |
| COCCCCCCC(=O)CCCCCC/C=C/[C@H](C(=O)N[C@@H](Cc1ccc(OCCC(C)C)cc1)C(=O)O)[C@@](O)(CC(=O)O)C(=O)O [Compound 99] | 0.056 | > 1 |
| CCCCCCCCCC(=O)CCCC/C=C/[C@H](C(=O)N[C@@H](Cc1ccc(-c2ccccc2)cc1)C(=O)O)[C@@](O)(CC(=O)O)C(=O)O [Compound 100] | 0.092 | > 1 |
| CCCCCCCCCC(=O)CCCC/C=C/[C@H](C(=O)N[C@@H](Cc1ccc(Oc2ccccc2)cc1)C(=O)O)[C@@](O)(CC(=O)O)C(=O)O [Compound 101] | 0.046 | > 1 |
| CCCCCCC(=O)CCCCCC/C=C/[C@H](C(=O)N[C@@H](Cc1ccc(-c2ccccc2)cc1)C(=O)O)[C@@](O)(CC(=O)O)C(=O)O [Compound 102] | 0.005 | > 1 |
| CCCCCCC(=O)CCCCCC/C=C/[C@H](C(=O)N[C@@H](Cc1ccc(Oc2ccccc2)cc1)C(=O)O)[C@@](O)(CC(=O)O)C(=O)O [Compound 103] | 0.011 | > 1 |
| CCCC#CCOc1ccc(C[C@H](NC(=O)[C@@H](/C=C/CCCCCCC(=O)CCCCCCC)[C@@](O)(CC(=O)O)C(=O)O)C(=O)O)cc1 [Compound 104] | 0.001 | > 1 |
| C#CCOc1ccc(C[C@H](NC(=O)[C@@H](/C=C/CCCCCCC(=O)CCCCCCC)[C@@](O)(CC(=O)O)C(=O)O)C(=O)O)cc1 [Compound 105] | 0.003 | > 1 |
| C#CCCCOc1ccc(C[C@H](NC(=O)[C@@H](/C=C/CCCCCCC(=O)CCCCCCC)[C@@](O)(CC(=O)O)C(=O)O)C(=O)O)cc1 [Compound 106] | 0.001 | > 1 |
| CC#CCCOc1ccc(C[C@H](NC(=O)[C@@H](/C=C/CCCCCCC(=O)CCCCCCC)[C@@](O)(CC(=O)O)C(=O)O)C(=O)O)cc1 [Compound 107] | 0.001 | > 1 |
| CCCCCCCC(=O)CCCCCC/C=C/[C@H](C(=O)N[C@@H](Cc1ccc(OCC#CCN(CC)CC)cc1)C(=O)O)[C@@](O)(CC(=O)O)C(=O)O [Compound 108] | 0.003 | > 1 |
| CCC#CCOc1ccc(C[C@H](NC(=O)[C@@H](/C=C/CCCCCCC(=O)CCCCCCC)[C@@](O)(CC(=O)O)C(=O)O)C(=O)O)cc1 [Compound 109] | 0.002 | > 1 |
| CCCCCCCC#CCOc1ccc(C[C@H](NC(=O)[C@@H](/C=C/CCCCCCC(=O)CCCCCCC)[C@@](O)(CC(=O)O)C(=O)O)C(=O)O)cc1 [Compound 110] | 0.005 | > 1 |
| CCCCCCCC(=O)CCCCCC/C=C/[C@H](C(=O)N[C@@H](Cc1ccc(OCC#CC#CC(C)(C)C)cc1)C(=O)O)[C@@](O)(CC(=O)O)C(=O)O [Compound 111] | 0.006 | > 1 |
